Patent US20250144067A1, “PERSONALIZED STARVATION THERAPY FOR CANCER” (Faeth Therapeutics, Inc., priority 2021, published 2025)
Counter-ions that a name gives are not always drawn.

These molecules were tested on NCI-H292 lung cancer cells (assay: FDA drug screening, complete media vs cholesterol-free media without statin (TABLE 1)). Conditions: NCI-H292 cells, cholesterol-free media without statin, FDA drug library screen.
Format: cell-based, human
Molecule `Nc1nc(/C(=C/CC(=O)O)C(=O)N[C@@H]2C(=O)N3C(C(=O)O)=CCS[C@H]23)cs1` [Ceftibuten (dihydrate)] has a Cholesterol-free of 0.6461. With `CC(=O)OCC1=C(C(=O)O)N2C(=O)[C@@H](NC(=O)Cc3cccs3)[C@H]2SC1` [Cephalothin (sodium)] the Cholesterol-free was 0.5607. `CC1=C(C(=O)O)N2C(=O)[C@@H](NC(=O)[C@H](N)C3=CCC=CC3)[C@H]2SC1` [Cephradine] gave a Cholesterol-free of 0.9298. `CC1OC2(CS1)CN1CCC2CC1` (stereo not drawn) [Cevimeline (hydrochloride hemihydrate)] showed a Cholesterol-free of 0.5656. In the case of `C[C@H](CCC(=O)O)[C@H]1CC[C@H]2[C@@H]3[C@H](O)C[C@@H]4C[C@H](O)CC[C@]4(C)[C@H]3CC[C@]12C` [Chenodeoxycholic Acid], the Cholesterol-free is reported as 0.7972. `[H]/N=C(\N/C(=N/[H])NCCCCCCNC(=N)NC(=N)Nc1ccc(Cl)cc1)Nc1ccc(Cl)cc1` [Chlorhexidine (digluconate)] was tested, and the Cholesterol-free was 0.8244. With `CN1C(=O)CCS(=O)(=O)C1c1ccc(Cl)cc1` (stereo not drawn) [Chlormezanone] the Cholesterol-free was 0.6871.

Same assay, conditions: NCI-H292 cells, complete media, FDA drug library screen
`Nc1nc(/C(=C/CC(=O)O)C(=O)N[C@@H]2C(=O)N3C(C(=O)O)=CCS[C@H]23)cs1` [Ceftibuten (dihydrate)] showed a Complete of 1.242. With `CC(=O)OCC1=C(C(=O)O)N2C(=O)[C@@H](NC(=O)Cc3cccs3)[C@H]2SC1` [Cephalothin (sodium)] the Complete was 1.228. `CC1=C(C(=O)O)N2C(=O)[C@@H](NC(=O)[C@H](N)C3=CCC=CC3)[C@H]2SC1` [Cephradine] gave a Complete of 1.756. `CC1OC2(CS1)CN1CCC2CC1` (stereo not drawn) [Cevimeline (hydrochloride hemihydrate)] showed a Complete of 1.046. For `C[C@H](CCC(=O)O)[C@H]1CC[C@H]2[C@@H]3[C@H](O)C[C@@H]4C[C@H](O)CC[C@]4(C)[C@H]3CC[C@]12C` [Chenodeoxycholic Acid], the Complete was 1.211. For `[H]/N=C(\N/C(=N/[H])NCCCCCCNC(=N)NC(=N)Nc1ccc(Cl)cc1)Nc1ccc(Cl)cc1` [Chlorhexidine (digluconate)], the Complete was 0.943. `CN1C(=O)CCS(=O)(=O)C1c1ccc(Cl)cc1` (stereo not drawn) [Chlormezanone] showed a Complete of 0.9881.

Same assay, conditions: complete vs cholesterol-free media; >0 enhanced anti-cancer activity, about 0 neutral, <0 antagonist
For `Nc1nc(/C(=C/CC(=O)O)C(=O)N[C@@H]2C(=O)N3C(C(=O)O)=CCS[C@H]23)cs1` [Ceftibuten (dihydrate)], the Difference was 0.60. For `CC(=O)OCC1=C(C(=O)O)N2C(=O)[C@@H](NC(=O)Cc3cccs3)[C@H]2SC1` [Cephalothin (sodium)], the Difference was 0.67. `CC1=C(C(=O)O)N2C(=O)[C@@H](NC(=O)[C@H](N)C3=CCC=CC3)[C@H]2SC1` [Cephradine] was tested, and the Difference was 0.83. Work on `CC1OC2(CS1)CN1CCC2CC1` (stereo not drawn) [Cevimeline (hydrochloride hemihydrate)] yielded a Difference of 0.48. In the case of `C[C@H](CCC(=O)O)[C@H]1CC[C@H]2[C@@H]3[C@H](O)C[C@@H]4C[C@H](O)CC[C@]4(C)[C@H]3CC[C@]12C` [Chenodeoxycholic Acid], the Difference is reported as 0.41. `[H]/N=C(\N/C(=N/[H])NCCCCCCNC(=N)NC(=N)Nc1ccc(Cl)cc1)Nc1ccc(Cl)cc1` [Chlorhexidine (digluconate)] was tested, and the Difference was 0.12.

Same assay, conditions: complete vs cholesterol-free media; […]
For `CN1C(=O)CCS(=O)(=O)C1c1ccc(Cl)cc1` (stereo not drawn) [Chlormezanone], the Difference was 0.30.

What follows are molecules tested on NCI-H292 lung cancer cells (assay: FDA drug screening, complete media vs cholesterol-free media with simvastatin (TABLE 2)). Conditions: NCI-H292 cells, FDA drug library screen, cholesterol-free media with simvastatin 0.04 μM.
Format: cell-based, human
For `Nc1nc(/C(=C/CC(=O)O)C(=O)N[C@@H]2C(=O)N3C(C(=O)O)=CCS[C@H]23)cs1` [Ceftibuten (dihydrate)], the “Cholesterol-free media + simvastatin (0.04 μM)” value was 1.353.

Same assay, conditions: NCI-H292 cells, FDA drug library screen, complete media
With `Nc1nc(/C(=C/CC(=O)O)C(=O)N[C@@H]2C(=O)N3C(C(=O)O)=CCS[C@H]23)cs1` [Ceftibuten (dihydrate)] the “Complete Media” value was 1.195.

Same assay, conditions: NCI-H292 cells, FDA library drug in cholesterol-free media with simvastatin 0.04 μM
For `CC1=C(C(=O)O)N2C(=O)[C@@H](NC(=O)[C@H](N)C3=CCC=CC3)[C@H]2SC1` [Cephradine], the “Cholesterol-free media + simvastatin (0.04 μM)” value was 1.213. With `CN1C(=O)CCS(=O)(=O)C1c1ccc(Cl)cc1` (stereo not drawn) [Chlormezanone] the “Cholesterol-free media + simvastatin (0.04 μM)” value was 1.449.

Same assay, conditions: NCI-H292 cells, FDA library drug in complete media
In the case of `CC1=C(C(=O)O)N2C(=O)[C@@H](NC(=O)[C@H](N)C3=CCC=CC3)[C@H]2SC1` [Cephradine], the “Complete Media” value is reported as 0.8523. In the case of `CN1C(=O)CCS(=O)(=O)C1c1ccc(Cl)cc1` (stereo not drawn) [Chlormezanone], the “Complete Media” value is reported as 1.114.

Same assay, conditions: NCI-H292 cells, cholesterol-free media with simvastatin 0.04 μM; FDA drug library screen (TABLE 2)
In the case of `CC1OC2(CS1)CN1CCC2CC1` (stereo not drawn) [Cevimeline (hydrochloride hemihydrate)], the “Cholesterol-free media + simvastatin (0.04 μM)” value is reported as 0.9444. With `C[C@H](CCC(=O)O)[C@H]1CC[C@H]2[C@@H]3[C@H](O)C[C@@H]4C[C@H](O)CC[C@]4(C)[C@H]3CC[C@]12C` [Chenodeoxycholic Acid] the “Cholesterol-free media + simvastatin (0.04 μM)” value was 0.895. `[H]/N=C(\N/C(=N/[H])NCCCCCCNC(=N)NC(=N)Nc1ccc(Cl)cc1)Nc1ccc(Cl)cc1` [Chlorhexidine (digluconate)] was tested, and the “Cholesterol-free media + simvastatin (0.04 μM)” value was 1.008.

Same assay, conditions: NCI-H292 cells, complete media; FDA drug library screen (TABLE 2)
`CC1OC2(CS1)CN1CCC2CC1` (stereo not drawn) [Cevimeline (hydrochloride hemihydrate)] was tested, and the “Complete Media” value was 0.9482. With `C[C@H](CCC(=O)O)[C@H]1CC[C@H]2[C@@H]3[C@H](O)C[C@@H]4C[C@H](O)CC[C@]4(C)[C@H]3CC[C@]12C` [Chenodeoxycholic Acid] the “Complete Media” value was 0.9061. For `[H]/N=C(\N/C(=N/[H])NCCCCCCNC(=N)NC(=N)Nc1ccc(Cl)cc1)Nc1ccc(Cl)cc1` [Chlorhexidine (digluconate)], the “Complete Media” value was 0.9694.

Same assay, conditions: NCI-H292 cells, drug in cholesterol-free media with simvastatin 0.04 μM
For `CC(=O)OCC1=C(C(=O)O)N2C(=O)[C@@H](NC(=O)Cc3cccs3)[C@H]2SC1` [Cephalothin (sodium)], the “Cholesterol-free media + simvastatin (0.04 μM)” value was 0.9867.

Same assay, conditions: NCI-H292 cells, drug in complete media
In the case of `CC(=O)OCC1=C(C(=O)O)N2C(=O)[C@@H](NC(=O)Cc3cccs3)[C@H]2SC1` [Cephalothin (sodium)], the “Complete Media” value is reported as 0.7901.

Same assay, conditions: complete media minus cholesterol-free media + simvastatin (0.04 μM); >0 enhanced anti-cancer activity, about 0 neutral, <0 antagonist
`CC1OC2(CS1)CN1CCC2CC1` (stereo not drawn) [Cevimeline (hydrochloride hemihydrate)] was tested, and the Difference was 0.00. In the case of `C[C@H](CCC(=O)O)[C@H]1CC[C@H]2[C@@H]3[C@H](O)C[C@@H]4C[C@H](O)CC[C@]4(C)[C@H]3CC[C@]12C` [Chenodeoxycholic Acid], the Difference is reported as 0.01. For `[H]/N=C(\N/C(=N/[H])NCCCCCCNC(=N)NC(=N)Nc1ccc(Cl)cc1)Nc1ccc(Cl)cc1` [Chlorhexidine (digluconate)], the Difference was −0.04.

Same assay, conditions: complete media vs cholesterol-free media + simvastatin (0.04 μM); >0 enhanced anti-cancer activity, about 0 neutral, <0 antagonist
`Nc1nc(/C(=C/CC(=O)O)C(=O)N[C@@H]2C(=O)N3C(C(=O)O)=CCS[C@H]23)cs1` [Ceftibuten (dihydrate)] showed a Difference of −0.16. With `CC(=O)OCC1=C(C(=O)O)N2C(=O)[C@@H](NC(=O)Cc3cccs3)[C@H]2SC1` [Cephalothin (sodium)] the Difference was −0.20. With `CC1=C(C(=O)O)N2C(=O)[C@@H](NC(=O)[C@H](N)C3=CCC=CC3)[C@H]2SC1` [Cephradine] the Difference was −0.36.

Same assay, conditions: complete media vs cholesterol-free media + simvastatin (0.04 μM); […]
For `CN1C(=O)CCS(=O)(=O)C1c1ccc(Cl)cc1` (stereo not drawn) [Chlormezanone], the Difference was −0.34.
